Tested on: human KRAS G12C mutated cell line MIA PaCa-2
Assay: Inhibition of proliferation of MIA PaCa-2 cells (CellTiter-Glo, 7 day)
Type: cell-based
Conditions: 168 h, Table 4, 7 day, mean, read-out: MIA PaCa-2 IC50 (μM) 7 day Mean
Method in brief: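 MIA PaCa-2 cells (RPMI-1640, 10% FBS) seeded at about 1000 cells/well; eight compound concentrations in duplicate added 2 h later, with media and compound refreshed on day 3. ATP-luminescence viability read on day 7 by CellTiter-Glo; % inhibition relative to 0.2% DMSO control.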

| IC50 | SMILES |
| --- | --- |
| > 1 µM | Oc1cc(Cl)c(C2CC2)c(-c2ccc3c(N4C[C@H]5C[C@@H]4CN5)nc(OC[C@@]45CCCN4C[C@H](F)C5)nc3c2F)c1 [Compound 424, 3-chloro-4-cyclopropyl-5-[4-[(1R,4R)-2,5-diazabicyclo[2.2.1]heptan-2-y1]-8-fluoro-2-[[(2R,8S)-2-fluoro-1,2,3,5,6,7-hexahydropyrrolizin-8-yl]methoxy]quinazolin-7-yl]phenol] |
| 0.607 µM | Oc1cc(Cl)c(C2CC2)c(-c2ccc3c(N4CCNCC45CC5)nc(OC[C@@]45CCCN4C[C@H](F)C5)nc3c2F)c1 [Compound 425, 3-chloro-4-cyclopropyl-5-[4-(4,7-diazaspiro[2.5]octan-4-yl)-8-fluoro-2-[[(2R,8S)-2-fluoro-1,2,3,5,6,7-hexahydropyrrolizin-8-yl]methoxy]quinazolin-7-y1]phenol] |
| > 1 µM | C[C@@H]1CNCCN1c1nc(OC[C@@]23CCCN2C[C@H](F)C3)nc2cc(-c3c(O)cccc3C3CC3)c(F)cc12 [Compound 426] |
| 0.983 µM | Oc1cc(Cl)c(C2CC2)c(-c2ccc3c(C4CCNCC4)nc(OC[C@@]45CCCN4C[C@H](F)C5)nc3c2F)c1 [Compound 430, 3-chloro-4-cyclopropyl-5-[8-fluoro-2-[[(2R,8S)-2-fluoro-1,2,3,5,6,7-hexahydropyrrolizin-8-yl]methoxy]-4-(4-piperidyl)quinazolin-7-yl]phenol] |
| > 1 µM | Oc1cc(Cl)c(C2CC2)c(-c2ncc3c(C4CCNCC4)nc(OC[C@@]45CCCN4C[C@H](F)C5)nc3c2F)c1 [Compound 433] |
| > 1 µM | Oc1cc(-c2ncc3c(C4CCNCC4)nc(OC[C@@]45CCCN4C[C@H](F)C5)nc3c2F)c2c(F)c(F)ccc2c1 [Compound 435, 5,6-difluoro-4-[8-fluoro-2-[[(2R,8S)-2-fluoro-1,2,3,5,6,7-hexahydropyrrolizin-8-yl]methoxy]-4-(4-piperidyl)pyrido[4,3-d]pyrimidin-7-yl]naphthalen-2-ol] |
| > 1 µM | C=C1CCN(c2nc(OC[C@@]34CCCN3C[C@H](F)C4)nc3c(F)c(-c4cc(O)cc(Cl)c4C4CC4)ncc23)CC1 [Compound 436, 3-chloro-4-cyclopropyl-5-[8-fluoro-2-[[(2R,8S)-2-fluoro-1,2,3,5,6,7-hexahydropyrrolizin-8-yl]methoxy]-4-(4-methylene-1-piperidyl)pyrido[4,3-d]pyrimidin-7-yl]phenol] |
| > 1 µM | Oc1cc(Cl)c(C2CC2)c(-c2ncc3c(N4CCC5(CC4)CO5)nc(OC[C@@]45CCCN4C[C@H](F)C5)nc3c2F)c1 [Compound 437, 3-chloro-4-cyclopropyl-5-[8-fluoro-2-[[(2R,8S)-2-fluoro-1,2,3,5,6,7-hexahydropyrrolizin-8-yl]methoxy]-4-(1-oxa-6-azaspiro[2.5]octan-6-yl)pyrido[4,3-d]pyrimidin-7-yl]phenol] |
| > 1 µM | C[C@H]1CC(c2nc(OC[C@@]34CCCN3C[C@H](F)C4)nc3c(F)c(-c4cc(O)cc5ccc(F)c(F)c45)ncc23)CCN1 (stereo partly drawn) [Compound 439, 5,6-difluoro-4-[8-fluoro-2-[[(2R,8S)-2-fluoro-1,2,3,5,6,7-hexahydropyrrolizin-8-yl]methoxy]-4-[(2S)-2-methyl-4-piperidyl]pyrido[4,3-d]pyrimidin-7-yl]naphthalen-2-ol] |
| 3.65 µM | C[C@@H]1CC(c2nc(OC[C@@]34CCCN3C[C@H](F)C4)nc3c(F)c(-c4cc(O)cc5ccc(F)c(F)c45)ncc23)CCN1 (stereo partly drawn) [Compound 440, 5,6-difluoro-4-[8-fluoro-2-[[(2R,8S)-2-fluoro-1,2,3,5,6,7-hexahydropyrrolizin-8-yl]methoxy]-4-[(2R)-2-methyl-4-piperidyl]pyrido[4,3-d]pyrimidin-7-yl]naphthalen-2-ol] |
| > 1 µM | CCC1(c2nc(OC[C@@]34CCCN3C[C@H](F)C4)nc3c(F)c(-c4cc(O)cc(Cl)c4C4CC4)ncc23)CCNCC1 [Compound 441] |
| 8.87 µM | CC1(c2nc(OC[C@@]34CCCN3C[C@H](F)C4)nc3c(F)c(-c4cc(O)cc(Cl)c4C4CC4)ncc23)CCNCC1 [Compound 442, 3-chloro-4-cyclopropyl-5-[8-fluoro-2-[[(2R,8S)-2-fluoro-1,2,3,5,6,7-hexahydropyrrolizin-8-yl]methoxy]-4-(4-methyl-4-piperidyl)pyrido[4,3-d]pyrimidin-7-yl]phenol] |

Continued, molecule first:

| SMILES | IC50 |
| --- | --- |
| C[C@@H]1CNCCN1c1nc(OC[C@@]23CCCN2C[C@H](F)C3)nc2cc(-c3c(O)cccc3C3CC3)cnc12 [Compound 413] | > 1 µM |
| Oc1cc(Cl)c(C2CC2)c(-c2cnc3c(N4CCNCC45CC5)nc(OC[C@@]45CCCN4C[C@H](F)C5)nc3c2)c1 [Compound 414, 3-chloro-4-cyclopropyl-5-[4-(4,7-diazaspiro[2.5]octan-4-yl)-2-[[(2R,8S)-2-fluoro-1,2,3,5,6,7-hexahydropyrrolizin-8-yl]methoxy]pyrido[3,2-d]pyrimidin-7-yl]phenol] | > 1 µM |
| N#C[C@H]1CNCCN1c1nc(OC[C@@]23CCCN2C[C@H](F)C3)nc2c(F)c(-c3cc(O)cc(Cl)c3C3CC3)ccc12 [Compound 415, (2R)-1-[7-(3-chloro-2-cyclopropyl-5-hydroxy-phenyl)-8-fluoro-2-[[(2R,8S)-2-fluoro-1,2,3,5,6,7-hexahydropyrrolizin-8-yl]methoxy]quinazolin-4-y1]piperazine-2-carbonitrile] | > 1 µM |
| N#CC1CNCCN1c1nc(OC[C@@]23CCCN2C[C@H](F)C3)nc2cc(-c3cc(O)cc(Cl)c3C3CC3)cnc12 (stereo partly drawn) [Compound 416, 1-[7-(3-chloro-2-cyclopropyl-5-hydroxy-phenyl)-2-[[(2R,8S)-2-fluoro-1,2,3,5,6,7-hexahydropyrrolizin-8-yl]methoxy]pyrido[3,2-d]pyrimidin-4-yl]piperazine-2-carbonitrile] | > 1 µM |
| Oc1cc(Cl)c(C2CC2)c(-c2cc3nc(OC[C@@]45CCCN4C[C@H](F)C5)nc(N4C[C@H]5C[C@@H]4CN5)c3cc2F)c1 [Compound 417] | > 1 µM |
| Oc1cccc(Cl)c1-c1cc(F)c2c(N3C[C@H]4C[C@@H]3CN4)nc(OC[C@@]34CCCN3C[C@H](F)C4)nc2c1 [Compound 418] | > 1 µM |
| Oc1cccc(Cl)c1-c1cc(F)c2c(N3CCNCC34CC4)nc(OC[C@@]34CCCN3C[C@H](F)C4)nc2c1 [Compound 419, 3-chloro-2-[4-(4,7-diazaspiro[2.5]octan-4-yl)-5-fluoro-2-[[(2R,8S)-2-fluoro-1,2,3,5,6,7-hexahydropyrrolizin-8-yl]methoxy]quinazolin-7-yl]phenol] | > 1 µM |
| Oc1cccc(Cl)c1-c1cc(OCC23CCCN2C[C@H](F)C3)c2c(N3CCNCC34CC4)nc(OC[C@@]34CCCN3C[C@H](F)C4)nc2c1 (stereo partly drawn) [Compound 420, 3-chloro-2-[4-(4,7-diazaspiro[2.5]octan-4-yl)-5-[[(2R)-2-fluoro-1,2,3,5,6,7-hexahydropyrrolizin-8-yl]methoxy]-2-[[(2R,8S)-2-fluoro-1,2,3,5,6,7-hexahydropyrrolizin-8-yl]methoxy]quinazolin-7-yl]phenol] | > 1 µM |
| Fc1cc2c(N3CCNC4(CC4)C3)nc(OC[C@@]34CCCN3C[C@H](F)C4)nc2cc1-c1cccc2cccc(Cl)c12 [Compound 421, 7-(8-chloro-1-naphthyl)-4-(4,7-diazaspiro[2.5]octan-7-y1)-6-fluoro-2-[[(2R,8S)-2-fluoro-1,2,3,5,6,7-hexahydropyrrolizin-8-yl]methoxy]quinazoline] | > 1 µM |
| F[C@H]1CN2CCC[C@@]2(COc2cc(N3C[C@H]4C[C@@H]3CN4)c3ncc(-c4cccc5cccc(Cl)c45)cc3n2)C1 [Compound 422, 7-(8-chloro-1-naphthyl)-4-[(1R,4R)-2,5-diazabicyclo[2.2.1]heptan-2-y1]-2-[[(2R,8S)-2-fluoro-1,2,3,5,6,7-hexahydropyrrolizin-8-yl]methoxy]-1,5-naphthyridine] | > 1 µM |
| F[C@H]1CN2CCC[C@@]2(COc2nc(N3CC4CCC(C3)N4)c3ccc(-c4cccc5cccc(Cl)c45)cc3n2)C1 [Compound 423] | > 1 µM |
| Cn1ccnc1-c1c(F)cccc1-c1cnc2c(N3CC4CCC(C3)N4)nc(OC[C@@]34CCCN3C[C@H](F)C4)nc2c1 [Compound 427, 4-(3,8-diazabicyclo[3.2.1]octan-3-yl)-2-[[(2R,8S)-2-fluoro-1,2,3,5,6,7-hexahydropyrrolizin-8-yl]methoxy]-7-[3-fluoro-2-(1-methylimidazol-2-yl)phenyl]pyrido[3,2-d]pyrimidine] | > 1 µM |
| Oc1cc(Cl)c(C2CC2)c(-c2ccc3c(N4CC5CCC(C4)N5)nc(OC[C@@]45CCCN4C[C@H](F)C5)nc3c2)c1 [Compound 428, 3-chloro-4-cyclopropyl-5-[4-(3,8-diazabicyclo[3.2.1]octan-3-y1)-2-[[(2R,8S)-2-fluoro-1,2,3,5,6,7-hexahydropyrrolizin-8-yl]methoxy]quinazolin-7-yl]phenol] | > 1 µM |
| Oc1cc(Cl)c(C2CC2)c(-c2ccc3c(N4CC5CCC(C4)N5)cc(OC[C@@]45CCCN4C[C@H](F)C5)nc3c2F)c1 [Compound 429, 3-chloro-4-cyclopropyl-5-[4-(3,8-diazabicyclo[3.2.1]octan-3-yl)-8-fluoro-2-[[(2R,8S)-2-fluoro-1,2,3,5,6,7-hexahydropyrrolizin-8-y1]methoxy]-7-quinolyl]phenol] | > 1 µM |
| OC1Cc2cccc(Cl)c2N(c2ncc3c(N4CC5CCC(C4)N5)nc(OC[C@@]45CCCN4C[C@H](F)C5)nc3c2F)C1 (some centres unmarked) [Compound 432] | > 1 µM |
| CC(C)C(O)CN1C2CCC1CN(c1nc(OC[C@@]34CCCN3C[C@H](F)C4)nc3c(F)c(-c4cc(O)cc(Cl)c4C4CC4)ncc13)C2 (some centres unmarked) [Compound 434] | > 1 µM |
| Oc1cc(Cl)c(C2CC2)c(-c2ncc3c(N4CCC5(CC4)CN5)nc(OC[C@@]45CCCN4C[C@H](F)C5)nc3c2F)c1 [Compound 438, 3-chloro-4-cyclopropyl-5-[4-(1,6-diazaspiro[2.5]octan-6-yl)-8-fluoro-2-[[(2R,8S)-2-fluoro-1,2,3,5,6,7-hexahydropyrrolizin-8-yl]methoxy]pyrido[4,3-d]pyrimidin-7-yl]phenol] | 0.229 µM |

From patent US20240409558A1, “IRREVERSIBLE INHIBITORS OF KRAS” (BIOMEA FUSION, INC., priority 2021, published 2024)
